3 substances from US5157021A, “Insulin derivatives and pharmaceutical preparations containing these derivatives” (Novo Nordisk A/S, priority 1985, dated 1992) can be followed below.

The test relates to guinea pigs. The test can be described thus: Hypoglycemia (blood glucose) in guinea pigs after subcutaneous injection of the insulin preparation. Format: in vivo, guinea pig. The method, then:
25 ml of a medium containing 1.6% (w/v) of glycerol. 0.33% (w/v) of m-cresol, 1/75M of sodium phosphate, pH value 7.3, were prepared. The solution was sterilized by filtration. 1.5 mg of human insulin-B21-methyl ester, prepared as described in Example 1, were suspended in 1.0 ml of medium.
4.5 mg of human insulin-A17-methyl ester were dissolved in 2.7 ml of 0.015M phosphoric acid. 21 mg of sodium chloride and 4.1 μlitres of an aqueous solution of 152 mM zinc chloride were added. The solution was sterilized by filtration. The pH value of the solution was adjusted to 8.0 under aseptic conditions with a sterile aqueous solution of sodium hydroxide. The pH value of the solution was then readjusted to 7.3 with sterile hydrochloric acid, and rhombohedral crystals with a mean size of 10 um were formed with gentle stirring at 21° C. The volume was adjusted to 3 ml with sterile water.
Moreover, a sterile solution of 3 ml of 13.5 mM phosphoric acid in admixture with 21 mg of sodium chloride and 9 μlitres of m-cresol was prepared, and the pH value was adjusted to 7.3 with a sterile aqueous solution of sodium hydroxide. The two solutions were combined.
15 mg of human insulin-A4-gln, obtained as described in Example 5, was dissolved in 10 ml of a solution containing 13.5 mM phosphoric acid, 0.3% m-cresol and 1.6% glycerol. The solution was sterilized by filtration, and the pH value was adjusted to 9,0 with a sterile aqueous solution of sodium hydroxide. The pH value was readjusted to 8.2 with a sterile solution of hydrochloric acid, and human insulin-A4-gln crystallized as rhombohedral crystals with gentle stirring.

[1] abbreviates: dosage 18 μg/kg, crystalline zinc preparation pH 7.3.

In the case of Human insulin-A17-methyl ester, under setting [1], the “biological activity indicated by area below the blood glucose curve, relative to human insulin” value is listed as “nearly the same biological activity as human insulin”; the hypoglycemia entry is listed as “strongly protracted hypoglycemia”; the “protracted insulin action compared with "Insulatard"” value is on record as “longer than the protracted action of the known injection preparation”.
Regarding Human insulin-A4-gln, for the setting “subcutaneous injection of crystalline suspension at 0.5 IU/kg”, the “protracted hypoglycemic effect compared with "Insulatard" at 0.5 IU/kg” value was “nearly identical both in timing and amplitude”.
On to Human insulin-B21-methyl ester, for which the “protracted insulin action compared with "Insulatard"” value (subcutaneous, zinc-free suspension 1.5 mg in 1.0 ml medium, pH 7.3) is listed as “comparable to the hypoglycemia observed after injection of a standard protamin insulin preparation”.
